Measurements from PubChem BioAssay (NCI).
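Dose response: 5 concentrations. Exposure: 48 h. Format: 96-well plates. Endpoint: linear interpolation; highest concentration if not reached. TGI: total growth inhibition.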

What was measured:
Experiment in all cases: inhibition of tumour cell growth, NCI panel, 48 h
[1] = system: 786-0 renal
[2] = system: A498 renal
[3] = system: A549 NSCLC
[4] = system: ACHN renal
[5] = system: BT-549 breast
[6] = system: CAKI-1 renal
[7] = system: CCRF-CEM leukemia
[8] = system: COLO 205 colon
[9] = system: DU-145 prostate
[10] = system: EKVX NSCLC
[11] = system: HCC-2998 colon
[12] = system: HCT-116 colon
[13] = system: HCT-15 colon
[14] = system: HL-60(TB) leukemia
[15] = system: HOP-62 NSCLC
[16] = system: HS 578T breast
[17] = system: HT29 colon
[18] = system: IGROV1 ovarian
[19] = system: K-562 leukemia
[20] = system: KM12 colon
[21] = system: LOX IMVI melanoma
[22] = system: M14 melanoma
[23] = system: MALME-3M melanoma
[24] = system: MCF7 breast
[25] = system: MDA-MB-231 breast
[26] = system: MDA-MB-435
[27] = system: MDA-N
[28] = system: MOLT-4 leukemia
[29] = system: NCI-H226 lung
[30] = system: NCI-H23 lung
[31] = system: NCI-H460 lung
[32] = system: NCI-H522 lung
[33] = system: NCI/ADR-RES ovarian
[34] = system: OVCAR-3 ovarian
[35] = system: OVCAR-4 ovarian
[36] = system: OVCAR-5 ovarian
[37] = system: OVCAR-8 ovarian
[38] = system: PC-3 prostate
[39] = system: RPMI-8226 leukemia
[40] = system: RXF 393 renal
[41] = system: SF-268 CNS
[42] = system: SF-295 CNS
[43] = system: SF-539 CNS
[44] = system: SK-MEL-2 melanoma
[45] = system: SK-MEL-28 melanoma
[46] = system: SK-MEL-5 melanoma
[47] = system: SK-OV-3 ovarian
[48] = system: SN12C renal
[49] = system: SNB-19 CNS
[50] = system: SR leukemia
[51] = system: SW-620 colon
[52] = system: TK-10 renal
[53] = system: U251 CNS
[54] = system: UACC-257 melanoma
[55] = system: UACC-62 melanoma
[56] = system: UO-31 renal
[57] = system: HOP-92 NSCLC
[58] = system: T-47D breast
[59] = system: SNB-75 CNS

With `CCOC1NC(/N=C/c2ccc(OC)cc2)=C(C#N)C1C#N` (stereo not given) the TGI [1] was > 100 µM, the TGI [2] was > 100 µM and the TGI [3] was > 100 µM. For the same compound, the TGI [4] was > 100 µM, the TGI [5] was 73.5 µM and the TGI [6] was > 100 µM. For the same compound, the TGI [7] was 82.2 µM, the TGI [8] was > 100 µM and the TGI [9] was > 100 µM. For the same compound, the TGI [10] was > 100 µM, the TGI [11] was > 100 µM and the TGI [12] was > 100 µM. For the same compound, the TGI [13] was > 100 µM, the TGI [14] was > 100 µM and the TGI [15] was > 100 µM. The TGI [16] was > 100 µM, the TGI [17] was > 100 µM and the TGI [18] was > 100 µM. For the same compound, the TGI [19] was > 100 µM, the TGI [20] was > 100 µM and the TGI [21] was > 100 µM. For the same compound, the TGI [22] was > 100 µM, the TGI [23] was > 100 µM and the TGI [24] was > 100 µM. The TGI [25] was > 100 µM, the TGI [26] was > 100 µM and the TGI [27] was > 100 µM. For the same compound, the TGI [28] was > 100 µM, the TGI [29] was > 100 µM and the TGI [30] was > 100 µM. For the same compound, the TGI [31] was > 100 µM, the TGI [32] was 47.8 µM and the TGI [33] was > 100 µM. For the same compound, the TGI [34] was > 100 µM, the TGI [35] was > 100 µM and the TGI [36] was > 100 µM. For the same compound, the TGI [37] was > 100 µM, the TGI [38] was > 100 µM and the TGI [39] was > 100 µM. The TGI [40] was > 100 µM, the TGI [41] was > 100 µM and the TGI [42] was > 100 µM. For the same compound, the TGI [43] was > 100 µM, the TGI [44] was > 100 µM and the TGI [45] was > 100 µM. The TGI [46] was > 100 µM, the TGI [47] was > 100 µM and the TGI [48] was > 100 µM. The TGI [49] was > 100 µM, the TGI [50] was > 100 µM and the TGI [51] was > 100 µM. The TGI [52] was > 100 µM, the TGI [53] was > 100 µM and the TGI [54] was > 100 µM. The TGI [55] was > 100 µM and the TGI [56] was > 100 µM.

For `N#Cc1c(N2CCCC2)nsc1Nc1ccc(F)cc1`, the TGI [1] was > 100 µM, the TGI [2] was > 100 µM and the TGI [3] was > 100 µM. The TGI [4] was > 100 µM, the TGI [6] was > 100 µM and the TGI [7] was > 100 µM. For the same compound, the TGI [8] was > 100 µM, the TGI [9] was > 100 µM and the TGI [10] was > 100 µM. The TGI [11] was > 100 µM, the TGI [12] was > 100 µM and the TGI [13] was > 100 µM. For the same compound, the TGI [14] was > 100 µM, the TGI [15] was > 100 µM and the TGI [57] was > 100 µM. The TGI [16] was > 100 µM, the TGI [17] was > 100 µM and the TGI [18] was > 100 µM. For the same compound, the TGI [19] was > 100 µM, the TGI [20] was > 100 µM and the TGI [21] was > 100 µM. The TGI [22] was > 100 µM, the TGI [23] was > 100 µM and the TGI [25] was > 100 µM. For the same compound, the TGI [26] was > 100 µM, the TGI [27] was > 100 µM and the TGI [28] was > 100 µM. For the same compound, the TGI [29] was > 100 µM, the TGI [30] was > 100 µM and the TGI [31] was > 100 µM. For the same compound, the TGI [32] was > 100 µM, the TGI [33] was > 100 µM and the TGI [34] was > 100 µM. The TGI [35] was > 100 µM, the TGI [36] was > 100 µM and the TGI [37] was > 100 µM. The TGI [38] was > 100 µM, the TGI [39] was > 100 µM and the TGI [40] was > 100 µM. The TGI [41] was > 100 µM, the TGI [42] was > 100 µM and the TGI [43] was > 100 µM. For the same compound, the TGI [44] was > 100 µM, the TGI [45] was > 100 µM and the TGI [46] was > 100 µM. For the same compound, the TGI [47] was > 100 µM, the TGI [48] was > 100 µM and the TGI [49] was > 100 µM. The TGI [50] was > 100 µM, the TGI [51] was > 100 µM and the TGI [58] was > 100 µM. For the same compound, the TGI [52] was > 100 µM, the TGI [53] was > 100 µM and the TGI [54] was > 100 µM. For the same compound, the TGI [55] was > 100 µM.

`Cc1cc2oc3c(ccc(=O)n3C)c(=O)c2c(C)c1Cl` was tested, and the TGI [2] was > 100 µM, the TGI [3] was > 100 µM and the TGI [4] was > 100 µM. The TGI [6] was > 100 µM, the TGI [7] was > 100 µM and the TGI [8] was > 100 µM. For the same compound, the TGI [9] was > 100 µM, the TGI [10] was > 100 µM and the TGI [11] was > 100 µM. For the same compound, the TGI [12] was > 100 µM, the TGI [13] was > 100 µM and the TGI [14] was > 100 µM. For the same compound, the TGI [15] was > 100 µM, the TGI [57] was > 100 µM and the TGI [16] was 93 µM. The TGI [17] was > 100 µM, the TGI [18] was > 100 µM and the TGI [19] was > 100 µM. For the same compound, the TGI [20] was > 100 µM, the TGI [21] was > 100 µM and the TGI [22] was 81.8 µM. For the same compound, the TGI [23] was > 100 µM, the TGI [25] was > 100 µM and the TGI [26] was > 100 µM. For the same compound, the TGI [27] was > 100 µM, the TGI [29] was > 100 µM and the TGI [30] was > 100 µM. The TGI [31] was > 100 µM, the TGI [32] was > 100 µM and the TGI [33] was > 100 µM. For the same compound, the TGI [34] was > 100 µM, the TGI [35] was > 100 µM and the TGI [36] was > 100 µM. For the same compound, the TGI [37] was > 100 µM, the TGI [38] was > 100 µM and the TGI [40] was 95.6 µM. The TGI [41] was > 100 µM, the TGI [42] was > 100 µM and the TGI [43] was 74.6 µM. The TGI [44] was > 100 µM, the TGI [45] was 73.1 µM and the TGI [46] was > 100 µM. The TGI [47] was > 100 µM, the TGI [48] was > 100 µM and the TGI [49] was > 100 µM. The TGI [59] was > 100 µM, the TGI [50] was > 100 µM and the TGI [51] was > 100 µM. For the same compound, the TGI [58] was > 100 µM, the TGI [52] was > 100 µM and the TGI [53] was > 100 µM. For the same compound, the TGI [55] was > 100 µM and the TGI [56] was > 100 µM.

`O=c1[nH]nc(Cc2ccc(Cl)cc2)n1/N=C/c1c[nH]c2ccccc12` was tested, and the TGI [1] was > 100 µM, the TGI [2] was > 100 µM and the TGI [3] was > 100 µM. The TGI [4] was > 100 µM, the TGI [6] was > 100 µM and the TGI [7] was > 100 µM. For the same compound, the TGI [9] was > 100 µM, the TGI [10] was > 100 µM and the TGI [11] was > 100 µM. For the same compound, the TGI [12] was > 100 µM, the TGI [13] was > 100 µM and the TGI [14] was > 100 µM. The TGI [15] was > 100 µM, the TGI [57] was > 100 µM and the TGI [16] was > 100 µM. For the same compound, the TGI [17] was > 100 µM, the TGI [18] was > 100 µM and the TGI [19] was > 100 µM. The TGI [20] was > 100 µM, the TGI [21] was > 100 µM and the TGI [22] was > 100 µM. The TGI [23] was > 100 µM, the TGI [24] was > 100 µM and the TGI [25] was > 100 µM. The TGI [26] was > 100 µM, the TGI [27] was > 100 µM and the TGI [28] was > 100 µM. For the same compound, the TGI [29] was > 100 µM, the TGI [30] was > 100 µM and the TGI [31] was > 100 µM. The TGI [32] was > 100 µM, the TGI [33] was > 100 µM and the TGI [34] was > 100 µM. For the same compound, the TGI [35] was > 100 µM, the TGI [36] was > 100 µM and the TGI [37] was > 100 µM. For the same compound, the TGI [38] was > 100 µM, the TGI [39] was > 100 µM and the TGI [41] was > 100 µM. The TGI [42] was > 100 µM, the TGI [43] was > 100 µM and the TGI [44] was > 100 µM. The TGI [45] was > 100 µM, the TGI [46] was > 100 µM and the TGI [47] was > 100 µM. For the same compound, the TGI [48] was > 100 µM, the TGI [49] was > 100 µM and the TGI [59] was > 100 µM. The TGI [50] was > 100 µM, the TGI [51] was > 100 µM and the TGI [58] was > 100 µM. For the same compound, the TGI [52] was > 100 µM, the TGI [53] was > 100 µM and the TGI [54] was > 100 µM. The TGI [55] was > 100 µM and the TGI [56] was > 100 µM.
